Reference: patent US10392347B2, “2,4-dihydroxy-nicotinamides as APJ agonists” (BRISTOL-MYERS SQUIBB COMPANY, priority 2015, dated 2019)
Where two headings read alike, the source gives them in different places.

Biological target: T1, human APJ receptor (Homo sapiens, UniProt P35414)
T1 construct: expressed in transfected cells
T1 sequence (P35414 1-380): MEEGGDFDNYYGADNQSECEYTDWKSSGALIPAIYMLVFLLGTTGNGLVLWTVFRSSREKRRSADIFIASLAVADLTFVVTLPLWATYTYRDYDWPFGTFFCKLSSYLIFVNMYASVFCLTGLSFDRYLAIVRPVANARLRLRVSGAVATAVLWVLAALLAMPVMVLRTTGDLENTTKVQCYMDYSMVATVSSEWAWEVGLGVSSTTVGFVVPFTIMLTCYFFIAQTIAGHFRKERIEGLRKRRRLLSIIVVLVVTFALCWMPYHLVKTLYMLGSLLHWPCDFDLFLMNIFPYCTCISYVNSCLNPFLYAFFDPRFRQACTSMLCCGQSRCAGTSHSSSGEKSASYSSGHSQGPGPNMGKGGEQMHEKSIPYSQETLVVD
Experiment: Intracellular cAMP accumulation assay (APJ hcAMP, HTRF)
Assay type: cell-based
Conditions: HEK293 cells stably expressing human APJ, forskolin-stimulated cAMP
How it was run: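 Inhibition of forskolin (2 μM)-stimulated cAMP, with […], was measured after 30 min compound exposure at room temperature in stably transfected HEK293 cells. HTRF ratios were converted to cAMP via standard curve, and EC50 values came from variable-slope sigmoidal concentration-response fitting.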

[1] = Table 3, read-out: APJ cAMP EC50
[2] = Table 4, read-out: Human cAMP EC50

Structure (SMILES) | EC50 [1] [nM] | EC50 [2] [nM]
CCCCc1nc(O)c(C(=O)N2CCC(c3ccc(F)cn3)C2)c(O)c1-c1c(OC)cccc1OC (centres unmarked) [Example 80, 6-butyl-5-(2,6-dimethoxyphenyl)-3-[3-(5-fluoropyridin-2-yl)pyrrolidine-1-carbonyl]pyridine-2,4-diol] | 0.01 to 10 | –
CCCCc1nc(O)c(C(=O)N2CCC(c3ncccc3F)C2)c(O)c1-c1c(OC)cccc1OC (centres unmarked) [Example 81, 6-butyl-5-(2,6-dimethoxyphenyl)-3-[3-(3-fluoropyridin-2-yl)pyrrolidine-1-carbonyl]pyridine-2,4-diol] | 0.01 to 10 | –
CCCCc1nc(O)c(C(=O)N2CCC(c3ncc(F)cc3F)C2)c(O)c1-c1c(OC)cccc1OC (centres unmarked) [Example 82, 6-butyl-3-[3-(3,5-difluoropyridin-2-yl)pyrrolidine-1-carbonyl]-5-(2,6-dimethoxyphenyl)pyridine-2,4-diol] | 0.01 to 10 | –
CCCCc1nc(O)c(C(=O)N2CCC(c3ncc(F)cc3F)C2)c(O)c1-c1c(OC)cccc1OC (centres unmarked) [Example 83, 6-butyl-3-[3-(3,5-difluoropyridin-2-yl)pyrrolidine-1-carbonyl]-5-(2,6-dimethoxyphenyl)pyridine-2,4-diol] | 0.01 to 10 | –
CCOCc1nc(O)c(C(=O)N2CCC(c3ncc(F)cc3F)C2)c(O)c1-c1c(OC)cccc1OC (centres unmarked) [Example 84, 3-[3-(3,5-difluoropyridin-2-yl)pyrrolidine-1-carbonyl]-5-(2,6-dimethoxyphenyl)-6-(ethoxymethyl)pyridine-2,4-diol] | 0.01 to 10 | –
CCOCc1nc(O)c(C(=O)N2CCC(c3ncc(F)cc3F)C2)c(O)c1-c1c(OC)cccc1OC (centres unmarked) [Example 85, 3-[3-(3,5-difluoropyridin-2-yl)pyrrolidine-1-carbonyl]-5-(2,6-dimethoxyphenyl)-6-(ethoxymethyl)pyridine-2,4-diol] | 0.01 to 10 | –
COc1cccc(OC)c1-c1c(-c2ccc(F)cc2)nc(O)c(C(=O)N2CCC(c3ccccc3F)C2)c1O (centres unmarked) [Example 86, (5-(2,6-dimethoxyphenyl)-6-(4-fluorophenyl)-2,4-dihydroxypyridin-3-yl)(3-(2-fluorophenyl)pyrrolidin-1-yl)methanone] | 0.01 to 10 | –
COc1cccc(OC)c1-c1c(-c2ccc(F)cc2)nc(O)c(C(=O)N2CCC(c3ncc(F)cc3F)C2)c1O (centres unmarked) [Example 87, (3-(3,5-difluoropyridin-2-yl)pyrrolidin-1-yl)(5-(2,6-dimethoxyphenyl)-6-(4-fluorophenyl)-2,4-dihydroxypyridin-3-yl)methanone] | 0.01 to 10 | –
COCCc1nc(O)c(C(=O)N2CCN(Cc3cccc(F)c3)CC2)c(O)c1-c1c(OC)cccc1OC [Example 88, 5-(2,6-dimethoxyphenyl)-3-{4-[(3-fluorophenyl)methyl]piperazine-1-carbonyl}-6-(2-methoxyethyl)pyridine-2,4-diol] | – | 100 to 300
CCOCc1nc(O)c(C(=O)N2CCN(Cc3ccccc3F)CC2)c(O)c1-c1c(OC)cccc1OC [Example 89, 5-(2,6-dimethoxyphenyl)-6-(ethoxymethyl)-3-{4-[(2-fluorophenyl)methyl]piperazine-1-carbonyl}pyridine-2,4-diol] | – | 0.01 to 10
CCOCc1nc(O)c(C(=O)N2CCN(Cc3cccc(F)c3)CC2)c(O)c1-c1c(OC)cccc1OC [Example 90, 5-(2,6-dimethoxyphenyl)-6-(ethoxymethyl)-3-{4-[(3-fluorophenyl)methyl]piperazine-1-carbonyl}pyridine-2,4-diol] | – | 10 to 100
CCOCc1nc(O)c(C(=O)N2CCN(Cc3cccc(F)c3)CC2)c(O)c1-c1ccccc1OC [Example 91, 6-(ethoxymethyl)-3-{4-[(3-fluorophenyl)methyl]piperazine-1-carbonyl}-5-(2-methoxyphenyl)pyridine-2,4-diol] | – | 10 to 100
CCCCc1nc(O)c(C(=O)N2CCC(Oc3ccccc3)CC2)c(O)c1-c1c(OC)cccc1OC [Example 92, 6-butyl-5-(2,6-dimethoxyphenyl)-3-(4-phenoxypiperidine-1-carbonyl)pyridine-2,4-diol] | – | 0.01 to 10
CCCCc1nc(O)c(C(=O)N2CCN(Cc3ccc(Cl)cc3Cl)CC2)c(O)c1-c1c(OC)cccc1OC [Example 93, 6-butyl-3-{4-[(2,4-dichlorophenyl)methyl]piperazine-1-carbonyl}-5-(2,6-dimethoxyphenyl)pyridine-2,4-diol] | – | 0.01 to 10
CCCCc1nc(O)c(C(=O)N2CCN(Cc3cccc(Cl)c3Cl)CC2)c(O)c1-c1c(OC)cccc1OC [Example 94, 6-butyl-3-{4-[(2,3-dichlorophenyl)methyl]piperazine-1-carbonyl}-5-(2,6-dimethoxyphenyl)pyridine-2,4-diol] | – | 0.01 to 10

Now from value to compound:

EC50 [1] [nM] | EC50 [2] [nM] | Structure (SMILES)
– | 10 to 100 | CCCCc1nc(O)c(C(=O)N(C)CCNC(=O)c2ccccc2)c(O)c1-c1c(OC)cccc1OC [Example 95, N-(2-{1-[6-butyl-5-(2,6-dimethoxyphenyl)-2,4-dihydroxypyridin-3-yl]-N-methylformamido}ethyl)benzamide]
– | 0.01 to 10 | CCCCc1nc(O)c(C(=O)N2CC[C@@H](c3ccccc3)C2)c(O)c1-c1cc(OC)ccc1OC [Example 96, 6-butyl-5-(2,5-dimethoxyphenyl)-3-[(3S)-3-phenylpyrrolidine-1-carbonyl]pyridine-2,4-diol]
– | 0.01 to 10 | CCCCc1nc(O)c(C(=O)N2CC[C@H](c3ccccc3)C2)c(O)c1-c1cc(OC)ccc1OC [Example 97, 6-butyl-5-(2,5-dimethoxyphenyl)-3-[(3R)-3-phenylpyrrolidine-1-carbonyl]pyridine-2,4-diol]
– | 0.01 to 10 | CCCCc1nc(O)c(C(=O)N2CC(NC(=O)c3ccccc3)C2)c(O)c1-c1c(OC)cccc1OC [Example 98, N-{1-[6-butyl-5-(2,6-dimethoxyphenyl)-2,4-dihydroxypyridine-3-carbonyl]azetidin-3-yl}benzamide]
– | 10 to 100 | CCCCc1nc(O)c(C(=O)N(C)CCOc2ccccc2)c(O)c1-c1c(OC)cccc1OC [Example 99, 6-butyl-5-(2,6-dimethoxyphenyl)-2,4-dihydroxy-N-methyl-N-(2-phenoxyethyl)pyridine-3-carboxamide]
– | 0.01 to 10 | CCCCc1nc(O)c(C(=O)N2CCC(Oc3ccc(Cl)cn3)CC2)c(O)c1-c1c(OC)cccc1OC [Example 100, 6-butyl-3-{4-[(5-chloropyridin-2-yl)oxy]piperidine-1-carbonyl}-5-(2,6-dimethoxyphenyl)pyridine-2,4-diol]
– | 0.01 to 10 | CCCCc1nc(O)c(C(=O)N2CCN(Cc3ccccn3)CC2)c(O)c1-c1c(OC)cccc1OC [Example 101, 6-butyl-5-(2,6-dimethoxyphenyl)-3-[4-(pyridin-2-ylmethyl)piperazine-1-carbonyl]pyridine-2,4-diol]
– | 10 to 100 | CCCCc1nc(O)c(C(=O)N(C)CCNc2ncc(Cl)cc2F)c(O)c1-c1c(OC)cccc1OC [Example 102, 6-butyl-N-{2-[(5-chloro-3-fluoropyridin-2-yl)amino]ethyl}-5-(2,6-dimethoxyphenyl)-2,4-dihydroxy-N-methylpyridine-3-carboxamide]
– | 0.01 to 10 | CCCCc1nc(O)c(C(=O)N2CCN(Cc3cccc(Cl)c3Cl)CC2)c(O)c1-c1cc(OC)ccc1OC [Example 103, 6-butyl-3-{4-[(2,3-dichlorophenyl)methyl]piperazine-1-carbonyl}-5-(2,5-dimethoxyphenyl)pyridine-2,4-diol]
– | 0.01 to 10 | CCOCc1nc(O)c(C(=O)N2CCN(Cc3cccc(Cl)c3Cl)CC2)c(O)c1-c1c(OC)cccc1OC [Example 104, 3-{4-[(2,3-dichlorophenyl)methyl]piperazine-1-carbonyl}-5-(2,6-dimethoxyphenyl)-6-(ethoxymethyl)pyridine-2,4-diol]
– | 0.01 to 10 | CCCCc1nc(O)c(C(=O)N2CCN(C(=O)c3ccc(Cl)cn3)CC2)c(O)c1-c1c(OC)cccc1OC [Example 105, 6-butyl-3-[4-(5-chloropyridine-2-carbonyl)piperazine-1-carbonyl]-5-(2,6-dimethoxyphenyl)pyridine-2,4-diol]
– | 0.01 to 10 | CCCCc1nc(O)c(C(=O)N2CCC(Cc3ccccc3C)CC2)c(O)c1-c1c(OC)cccc1OC [Example 106, 6-butyl-5-(2,6-dimethoxyphenyl)-3-{4-[(2-methylphenyl)methyl]piperidine-1-carbonyl}pyridine-2,4-diol]
– | 100 to 300 | CCCCc1nc(O)c(C(=O)N2CCN(Cc3cccc(C(F)(F)F)c3)CC2)c(O)c1-c1c(OC)cccc1OC [Example 107, 6-butyl-5-(2,6-dimethoxyphenyl)-3-(4-{[3-(trifluoromethyl)phenyl]methyl}piperazine-1-carbonyl)pyridine-2,4-diol]
– | 0.01 to 10 | CCCCc1nc(O)c(C(=O)N2CCN(Cc3cccc(F)c3F)CC2)c(O)c1-c1c(OC)cccc1OC [Example 108, 6-butyl-3-{4-[(2,3-difluorophenyl)methyl]piperazine-1-carbonyl}-5-(2,6-dimethoxyphenyl)pyridine-2,4-diol]
– | 10 to 100 | CCCCc1nc(O)c(C(=O)N2CCN(CC3CCCCC3)CC2)c(O)c1-c1c(OC)cccc1OC [Example 109, 6-butyl-3-[4-(cyclohexylmethyl)piperazine-1-carbonyl]-5-(2,6-dimethoxyphenyl)pyridine-2,4-diol]
– | 0.01 to 10 | CCCCc1nc(O)c(C(=O)N2CCN(Cc3cccc(F)c3F)CC2)c(O)c1-c1cc(OC)ccc1OC [Example 110, 6-butyl-3-{4-[(2,3-difluorophenyl)methyl]piperazine-1-carbonyl}-5-(2,5-dimethoxyphenyl)pyridine-2,4-diol]
– | 10 to 100 | CCCCc1nc(O)c(C(=O)N2CCN(CC3CC3)CC2)c(O)c1-c1c(OC)cccc1OC [Example 111]
